IC50 and Activity data for six compounds are collected here from ChEMBL document CHEMBL1150409, “Development of paramagnetic probes for molecular recognition studies in protein kinases” (J Med Chem, 2008).

For assay [1], the target named is Mitogen-activated protein kinase 8 (Homo sapiens, UniProt P45983). As to the kind of experiment: Inhibition of JNK1 by TR-FRET assay. For orientation: TR-FRET usually uses a lanthanide donor and a delayed reading to cut background.
Assay [2] concerns the target Mitogen-activated protein kinase 9 (Homo sapiens) (UniProt P45984). As to the kind of experiment: Displacement of biotin-labeled pep-JIP1 from GST fused JNK2 upto 200 uM by DELFIA assay.
The target of assay [3] is Mitogen-activated protein kinase 14 (Homo sapiens) (UniProt Q16539). Kind of assay: Inhibition of MAPK p38alpha upto 100 uM.
Chain of Mitogen-activated protein kinase 14 (Homo sapiens) (Q16539 whole entry, the tested form may be a part): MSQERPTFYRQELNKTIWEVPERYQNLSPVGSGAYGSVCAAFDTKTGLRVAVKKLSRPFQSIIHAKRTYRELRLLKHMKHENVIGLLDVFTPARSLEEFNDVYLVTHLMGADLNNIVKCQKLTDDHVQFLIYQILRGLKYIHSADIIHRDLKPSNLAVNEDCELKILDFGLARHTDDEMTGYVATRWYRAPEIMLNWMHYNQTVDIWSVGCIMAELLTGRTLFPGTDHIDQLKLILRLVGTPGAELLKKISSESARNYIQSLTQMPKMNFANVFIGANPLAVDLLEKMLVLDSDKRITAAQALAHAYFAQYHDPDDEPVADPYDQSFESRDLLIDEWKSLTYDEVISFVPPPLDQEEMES
The target of assay [4] is Mitogen-activated protein kinase 9 (Homo sapiens) (UniProt P45984). As to the kind of experiment: Displacement of biotin-labeled pep-JIP1 from GST fused JNK2 by DELFIA assay.
Chain of Mitogen-activated protein kinase 9 (Homo sapiens) (P45984 whole entry, looked up, the tested form may be a part): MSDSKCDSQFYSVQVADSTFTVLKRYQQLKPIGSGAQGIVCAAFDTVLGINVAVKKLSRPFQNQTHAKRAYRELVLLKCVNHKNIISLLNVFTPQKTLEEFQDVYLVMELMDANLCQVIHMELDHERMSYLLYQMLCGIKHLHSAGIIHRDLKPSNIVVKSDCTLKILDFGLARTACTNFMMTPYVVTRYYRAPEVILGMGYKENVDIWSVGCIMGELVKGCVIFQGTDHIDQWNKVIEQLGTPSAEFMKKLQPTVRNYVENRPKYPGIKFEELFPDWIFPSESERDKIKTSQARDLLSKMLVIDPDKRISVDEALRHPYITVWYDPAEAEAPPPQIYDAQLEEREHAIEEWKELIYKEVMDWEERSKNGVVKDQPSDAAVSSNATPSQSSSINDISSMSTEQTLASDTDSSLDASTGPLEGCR

pIC50: −log10 of the molar value. Active and inactive are the calls of the source. No cut-off for these calls is given here. Peptide text beside a SMILES is read from it. * marks the point of attachment. X1 = O=C(NCCCN*)c1ccc(-c2n[nH]c3ccccc23)cc1

Chain of Mitogen-activated protein kinase 8 (P45983 whole entry, the tested form may be a part): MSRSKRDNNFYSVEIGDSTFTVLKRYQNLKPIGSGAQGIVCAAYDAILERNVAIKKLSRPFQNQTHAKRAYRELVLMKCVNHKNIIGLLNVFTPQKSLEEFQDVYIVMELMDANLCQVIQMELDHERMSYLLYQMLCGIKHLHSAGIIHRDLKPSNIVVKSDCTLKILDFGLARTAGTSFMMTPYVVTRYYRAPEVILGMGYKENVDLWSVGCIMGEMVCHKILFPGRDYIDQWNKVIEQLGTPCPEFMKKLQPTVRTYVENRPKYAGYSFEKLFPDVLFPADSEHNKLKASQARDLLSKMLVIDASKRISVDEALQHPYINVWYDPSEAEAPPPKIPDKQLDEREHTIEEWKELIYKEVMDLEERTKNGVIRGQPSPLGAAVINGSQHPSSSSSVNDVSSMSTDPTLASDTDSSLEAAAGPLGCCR

In assay [1], `O=C(O)CCCNC(=O)c1ccc(-c2n[nH]c3ccccc23)cc1` had a negative-log IC50 (pIC50) of 5.85.
`CC1(C)CC(NC(=O)CCCNC(=O)c2ccc(-c3n[nH]c4ccccc34)cc2)CC(C)(C)N1O`: the negative-log IC50 (pIC50) in assay [1] was 5.92.
Regarding `CC(=O)N[C@@H](CC(C)C)C(=O)N[C@@H](CC(N)=O)C(=O)N[C@@H](CC(C)C)C(=O)NCC(=O)NCC(=O)O` (Ac-LNLGG-OH), the outcome in assay [2] was inactive.
Take `CC(=O)N[C@@H](CC(C)C)C(=O)N[C@@H](CC(N)=O)C(=O)N[C@@H](CC(C)C)C(=O)NCC(=O)NCC(=O)NCCCNC(=O)c1ccc(-c2n[nH]c3ccccc23)cc1` (Ac-LNLGG-X1): the pIC50 in assay [1] was 6.53; in assay [4], 7.70. In assay [3], the result was inactive.
For the compound `CC(=O)N[C@@H](CC(C)C)C(=O)N[C@@H](CC(N)=O)C(=O)N[C@@H](CC(C)C)C(=O)O` (Ac-Leu-Asn-Leu-OH), in assay [2], the outcome was inactive.
`CC(=O)N[C@@H](CCCNC(=N)N)C(=O)N1CCC[C@H]1C(=O)N[C@H](C(=O)N[C@H](C(=O)N[C@@H](CC(C)C)C(=O)N[C@@H](CC(N)=O)C(=O)N[C@@H](CC(C)C)C(=O)O)[C@@H](C)O)[C@@H](C)O` (Ac-RPTTLNL-OH) showed a negative-log IC50 (pIC50) in assay [4] of 4.28.

Broadly, the pIC50 is the IC50 on a negative log10 scale, so that one unit is a factor of ten. Read a high pIC50 as a low IC50.
